Columns and labels:
Assay in all cases: relative viability (nuclei count vs DMSO), 5 days (fraction); higher = more cells survive
NCI-H596 = tested on: NCI-H596
How it was run: (§1)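 The day after seeding in 1536-well plates, lung cancer cell lines were treated by pin tool with a single drug, or with a fixed anchor-drug dose together with five library-drug doses (not always all listed) in √10 steps. After 5 days, a combined fix-and-stain solution (final 0.05% Triton X-100, 1% formaldehyde, 1 ug/ml Hoechst) was added. Nuclei counted on 4× images gave relative viability as treated counts over vehicle counts, reported as the median of duplicate plates.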

NCI-H1648 = tested on: NCI-H1648
How it was run: as §1

NCI-H522 = tested on: NCI-H522
How it was run: as §1

NCI-H1993 = tested on: NCI-H1993
How it was run: as §1

NCI-H23 = tested on: NCI-H23
How it was run: as §1

IA-LM = tested on: IA-LM
How it was run: as §1

A549 = tested on: A549
How it was run: as §1

NC(=O)Nc1cc(-c2cccc(F)c2)sc1C(=O)N[C@H]1CCCNC1 [AZD7762] + Nc1nc2[nH]cc(CCc3ccc(C(=O)N[C@@H](CCC(=O)O)C(=O)O)cc3)c2c(=O)[nH]1 [Pemetrexed] (partner 0.2 µM)
relative viability (NCI-H596; first compound 0.01 µM): 0.484
relative viability (NCI-H596; first compound 0.03162 µM): 0.573
relative viability (NCI-H596; first compound 0.1 µM): 0.54
relative viability (NCI-H596; first compound 0.3162 µM): 0.425
relative viability (NCI-H596; first compound 1 µM): 0.393
relative viability (NCI-H1648; first compound 0.01 µM): 0.644
relative viability (NCI-H1648; first compound 0.03162 µM): 0.646
relative viability (NCI-H1648; first compound 0.1 µM): 0.704
relative viability (NCI-H1648; first compound 0.3162 µM): 0.553
relative viability (NCI-H1648; first compound 1 µM): 0.631
relative viability (NCI-H522; first compound 0.01 µM): 1.03
relative viability (NCI-H522; first compound 0.03162 µM): 1.05
relative viability (NCI-H522; first compound 0.1 µM): 0.862
relative viability (NCI-H522; first compound 0.3162 µM): 0.943
relative viability (NCI-H522; first compound 1 µM): 0.791
relative viability (NCI-H1993; first compound 0.01 µM): 0.559
relative viability (NCI-H1993; first compound 0.03162 µM): 0.487
relative viability (NCI-H1993; first compound 0.1 µM): 0.602
relative viability (NCI-H1993; first compound 0.3162 µM): 0.586
relative viability (NCI-H1993; first compound 1 µM): 0.578
relative viability (NCI-H23; first compound 0.01 µM): 0.722
relative viability (NCI-H23; first compound 0.03162 µM): 0.62
relative viability (NCI-H23; first compound 0.1 µM): 0.514
relative viability (NCI-H23; first compound 0.3162 µM): 0.359
relative viability (NCI-H23; first compound 1 µM): 0.275

O=C(O)c1ccc(-c2c[nH]c3ncc(-c4ccccc4)cc23)cc1C1CCCC1 + O=C(CCCCCCC(=O)Nc1ccccc1)NO [Vorinostat] (partner 1 µM)
relative viability (NCI-H596; first compound 0.04 µM): 0.499
relative viability (NCI-H596; first compound 0.1265 µM): 0.657
relative viability (NCI-H596; first compound 0.4 µM): 0.583
relative viability (NCI-H596; first compound 1.265 µM): 0.571
relative viability (NCI-H1648; first compound 0.04 µM): 0.648
relative viability (NCI-H1648; first compound 0.1265 µM): 0.581
relative viability (NCI-H1648; first compound 0.4 µM): 0.331
relative viability (IA-LM; first compound 0.04 µM): 0.976
relative viability (IA-LM; first compound 0.1265 µM): 1.07
relative viability (IA-LM; first compound 0.4 µM): 1.13
relative viability (IA-LM; first compound 1.265 µM): 1.03
relative viability (NCI-H522; first compound 0.04 µM): 0.932
relative viability (NCI-H522; first compound 0.1265 µM): 0.984
relative viability (NCI-H522; first compound 0.4 µM): 0.843
relative viability (NCI-H522; first compound 1.265 µM): 1.11
relative viability (NCI-H1993; first compound 0.04 µM): 0.908
relative viability (NCI-H1993; first compound 0.1265 µM): 1.07
relative viability (NCI-H1993; first compound 0.4 µM): 0.725
relative viability (NCI-H1993; first compound 1.265 µM): 0.311
relative viability (NCI-H23; first compound 0.04 µM): 0.791
relative viability (NCI-H23; first compound 0.1265 µM): 0.844
relative viability (NCI-H23; first compound 0.4 µM): 0.588
relative viability (NCI-H23; first compound 1.265 µM): 0.575

CC1(C)CCC(c2ccc(Cl)cc2)=C(CN2CCN(c3ccc(C(=O)NS(=O)(=O)c4ccc(N[C@H](CCN5CCOCC5)CSc5ccccc5)c(S(=O)(=O)C(F)(F)F)c4)cc3)CC2)C1 [Navitoclax] + Nc1nc2[nH]cc(CCc3ccc(C(=O)N[C@@H](CCC(=O)O)C(=O)O)cc3)c2c(=O)[nH]1 [Pemetrexed] (partner 0.2 µM)
relative viability (NCI-H596; first compound 0.005 µM): 0.418
relative viability (NCI-H596; first compound 0.01581 µM): 0.459
relative viability (NCI-H596; first compound 0.05 µM): 0.5
relative viability (NCI-H596; first compound 0.1581 µM): 0.439
relative viability (NCI-H596; first compound 0.5 µM): 0.39
relative viability (NCI-H1648; first compound 0.005 µM): 0.868
relative viability (NCI-H1648; first compound 0.01581 µM): 0.747
relative viability (NCI-H1648; first compound 0.1581 µM): 0.563
relative viability (NCI-H1648; first compound 0.5 µM): 0.833
relative viability (NCI-H522; first compound 0.005 µM): 1.07
relative viability (NCI-H522; first compound 0.01581 µM): 1.28
relative viability (NCI-H522; first compound 0.05 µM): 0.885
relative viability (NCI-H522; first compound 0.1581 µM): 1.11
relative viability (NCI-H522; first compound 0.5 µM): 1.13
relative viability (NCI-H1993; first compound 0.005 µM): 0.616
relative viability (NCI-H1993; first compound 0.01581 µM): 0.701
relative viability (NCI-H1993; first compound 0.05 µM): 0.474
relative viability (NCI-H1993; first compound 0.1581 µM): 0.653
relative viability (NCI-H1993; first compound 0.5 µM): 0.677
relative viability (NCI-H23; first compound 0.005 µM): 0.594
relative viability (NCI-H23; first compound 0.01581 µM): 0.665
relative viability (NCI-H23; first compound 0.05 µM): 0.707
relative viability (NCI-H23; first compound 0.1581 µM): 0.603
relative viability (NCI-H23; first compound 0.5 µM): 0.645

O=C(O)c1ccc(-c2c[nH]c3ncc(-c4ccccc4)cc23)cc1C1CCCC1 + Nc1ncn([C@H]2C[C@H](O)[C@@H](CO)O2)c(=O)n1 [Decitabine] (partner 2 µM)
relative viability (NCI-H596; first compound 0.04 µM): 1.05
relative viability (NCI-H596; first compound 0.1265 µM): 0.933
relative viability (NCI-H596; first compound 0.4 µM): 1.01
relative viability (NCI-H596; first compound 1.265 µM): 1.74
relative viability (NCI-H1648; first compound 0.04 µM): 0.587
relative viability (NCI-H1648; first compound 0.1265 µM): 0.599
relative viability (NCI-H1648; first compound 0.4 µM): 0.569
relative viability (NCI-H522; first compound 0.04 µM): 0.662
relative viability (NCI-H522; first compound 0.1265 µM): 0.593
relative viability (NCI-H522; first compound 0.4 µM): 0.591
relative viability (NCI-H522; first compound 1.265 µM): 0.602
relative viability (NCI-H1993; first compound 0.04 µM): 0.552
relative viability (NCI-H1993; first compound 0.1265 µM): 0.547
relative viability (NCI-H1993; first compound 0.4 µM): 0.613
relative viability (NCI-H1993; first compound 1.265 µM): 0.644
relative viability (NCI-H23; first compound 0.04 µM): 0.329
relative viability (NCI-H23; first compound 0.1265 µM): 0.256
relative viability (NCI-H23; first compound 0.4 µM): 0.29
relative viability (NCI-H23; first compound 1.265 µM): 0.251
relative viability (A549; first compound 0.04 µM): 0.291
relative viability (A549; first compound 0.1265 µM): 0.265
relative viability (A549; first compound 0.4 µM): 0.277
relative viability (A549; first compound 1.265 µM): 0.251

CC1(C)CCC(c2ccc(Cl)cc2)=C(CN2CCN(c3ccc(C(=O)NS(=O)(=O)c4ccc(N[C@H](CCN5CCOCC5)CSc5ccccc5)c(S(=O)(=O)C(F)(F)F)c4)cc3)CC2)C1 [Navitoclax] + CC(=O)c1c(C)c2cnc(Nc3ccc(N4CCNCC4)cn3)nc2n(C2CCCC2)c1=O [Palbociclib] (partner 0.5 µM)
relative viability (NCI-H1648; first compound 0.005 µM): 0.274
relative viability (NCI-H1648; first compound 0.01581 µM): 0.269
relative viability (NCI-H1648; first compound 0.1581 µM): 0.289
relative viability (NCI-H1648; first compound 0.5 µM): 0.328
relative viability (NCI-H522; first compound 0.005 µM): 1.02
relative viability (NCI-H522; first compound 0.01581 µM): 1.05
relative viability (NCI-H522; first compound 0.05 µM): 1.06
relative viability (NCI-H522; first compound 0.1581 µM): 0.735
relative viability (NCI-H522; first compound 0.5 µM): 0.942
relative viability (NCI-H1993; first compound 0.005 µM): 0.7
relative viability (NCI-H1993; first compound 0.01581 µM): 0.744
relative viability (NCI-H1993; first compound 0.05 µM): 0.593
relative viability (NCI-H1993; first compound 0.1581 µM): 0.749
relative viability (NCI-H1993; first compound 0.5 µM): 0.653
relative viability (NCI-H23; first compound 0.005 µM): 0.518
relative viability (NCI-H23; first compound 0.01581 µM): 0.53
relative viability (NCI-H23; first compound 0.05 µM): 0.496
relative viability (NCI-H23; first compound 0.1581 µM): 0.446
relative viability (NCI-H23; first compound 0.5 µM): 0.534

O=C(O)c1ccc(-c2c[nH]c3ncc(-c4ccccc4)cc23)cc1C1CCCC1 + CC(=O)Nc1cccc(-n2c(=O)n(C3CC3)c(=O)c3c(Nc4ccc(I)cc4F)n(C)c(=O)c(C)c32)c1 [Trametinib] (partner 0.02 µM)
relative viability (NCI-H596; first compound 0.04 µM): 0.726
relative viability (NCI-H596; first compound 0.1265 µM): 0.815
relative viability (NCI-H596; first compound 0.4 µM): 0.777
relative viability (NCI-H596; first compound 1.265 µM): 0.802
relative viability (NCI-H1648; first compound 0.04 µM): 0.589
relative viability (NCI-H1648; first compound 0.1265 µM): 0.448
relative viability (NCI-H1648; first compound 0.4 µM): 0.494
relative viability (NCI-H522; first compound 0.04 µM): 0.696
relative viability (NCI-H522; first compound 0.1265 µM): 0.761
relative viability (NCI-H522; first compound 0.4 µM): 0.763
relative viability (NCI-H522; first compound 1.265 µM): 0.768
relative viability (NCI-H1993; first compound 0.04 µM): 0.473
relative viability (NCI-H1993; first compound 0.1265 µM): 0.484
relative viability (NCI-H1993; first compound 0.4 µM): 0.42
relative viability (NCI-H1993; first compound 1.265 µM): 0.575
relative viability (NCI-H23; first compound 0.04 µM): 0.375
relative viability (NCI-H23; first compound 0.1265 µM): 0.397
relative viability (NCI-H23; first compound 0.4 µM): 0.373
relative viability (NCI-H23; first compound 1.265 µM): 0.258

NC(=O)Nc1cc(-c2cccc(F)c2)sc1C(=O)N[C@H]1CCCNC1 [AZD7762] + CC(=O)Nc1cccc(-n2c(=O)n(C3CC3)c(=O)c3c(Nc4ccc(I)cc4F)n(C)c(=O)c(C)c32)c1 [Trametinib] (partner 0.02 µM)
relative viability (NCI-H596; first compound 0.01 µM): 0.931
relative viability (NCI-H596; first compound 0.03162 µM): 0.8
relative viability (NCI-H596; first compound 0.1 µM): 0.923
relative viability (NCI-H596; first compound 0.3162 µM): 0.803
relative viability (NCI-H596; first compound 1 µM): 0.626
relative viability (NCI-H1648; first compound 0.01 µM): 0.506
relative viability (NCI-H1648; first compound 0.03162 µM): 0.409
relative viability (NCI-H1648; first compound 0.1 µM): 0.513
relative viability (NCI-H1648; first compound 0.3162 µM): 0.446
relative viability (NCI-H1648; first compound 1 µM): 0.514
relative viability (NCI-H522; first compound 0.01 µM): 0.666
relative viability (NCI-H522; first compound 0.03162 µM): 0.822
relative viability (NCI-H522; first compound 0.1 µM): 0.737
relative viability (NCI-H522; first compound 0.3162 µM): 0.812
relative viability (NCI-H522; first compound 1 µM): 0.791
relative viability (NCI-H1993; first compound 0.01 µM): 0.458
relative viability (NCI-H1993; first compound 0.03162 µM): 0.482
relative viability (NCI-H1993; first compound 0.1 µM): 0.605
relative viability (NCI-H1993; first compound 0.3162 µM): 0.674
relative viability (NCI-H1993; first compound 1 µM): 0.536
relative viability (NCI-H23; first compound 0.01 µM): 0.477
relative viability (NCI-H23; first compound 0.03162 µM): 0.36
relative viability (NCI-H23; first compound 0.1 µM): 0.421
relative viability (NCI-H23; first compound 0.3162 µM): 0.392
relative viability (NCI-H23; first compound 1 µM): 0.201

— the supplement of paper PMC10307832
